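Growth conditions: 96-well plates. Treatment: test compound, 48 hours, 5 concentrations. Analysis: linear interpolation between bracketing concentrations; unreached endpoints set to highest concentration. TGI: total growth inhibition.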
How the values were obtained:
Assay in all cases: DTP human tumour cell line panel, 48 h
MOLT-4 leukemia = system: MOLT-4 leukemia
RXF 393 renal = system: RXF 393 renal
MDA-MB-435 = system: MDA-MB-435
HOP-62 NSCLC = system: HOP-62 NSCLC
HL-60(TB) leukemia = system: HL-60(TB) leukemia
HOP-92 NSCLC = system: HOP-92 NSCLC
U251 CNS = system: U251 CNS
UO-31 renal = system: UO-31 renal
NCI-H226 lung = system: NCI-H226 lung
BT-549 breast = system: BT-549 breast

Row | Structure (SMILES) | TGI (MOLT-4 leukemia) [µM] | TGI (RXF 393 renal) [µM] | TGI (MDA-MB-435) [µM] | TGI (HOP-62 NSCLC) [µM] | TGI (HL-60(TB) leukemia) [µM] | TGI (HOP-92 NSCLC) [µM] | TGI (U251 CNS) [µM] | TGI (UO-31 renal) [µM] | TGI (NCI-H226 lung) [µM] | TGI (BT-549 breast) [µM]
1 | Fc1ccc(-c2sc(-c3ccsc3)cc2Cc2ccsc2)cc1 | > 10 | > 10 | > 10 | > 10 | > 10 | > 10 | – | – | – | –
2 | COC(C/C(=C/CO[Si](C(C)C)(C(C)C)C(C)C)C(=O)N(C(=O)OC(C)(C)C)c1ccccc1I)OC | > 100 | – | > 100 | > 100 | – | > 100 | > 100 | > 100 | > 100 | –
3 | Cc1c(Cc2ccccc2)n(C(C)OCCN(OC(=O)Oc2ccccc2)C(=O)Oc2ccccc2)c(=O)[nH]c1=O (stereo unspecified) | 46.3 | 30.1 | 56.5 | 36.7 | – | 29.7 | 38.3 | 29.3 | – | 33
4 | COc1cc(C2S/C(=C/c3ccccc3)C(=O)N2Cc2ccccc2)cc(OC)c1OC (stereo unspecified) | > 100 | – | > 100 | > 100 | > 100 | > 100 | > 100 | > 100 | > 100 | > 100
5 | O=C(NC(=S)Nc1ccc([N+](=O)[O-])cc1)c1ccc2c(c1)Sc1ccccc1O2 | > 100 | – | > 100 | > 100 | > 100 | > 100 | > 100 | > 100 | > 100 | > 100
6 | O=P(O)(O)c1ccc(-c2ccc(I)cc2)cc1 | > 100 | > 100 | – | > 100 | > 100 | – | > 100 | > 100 | > 100 | > 100
7 | CC[C@@]1(O)C[C@H](OC2CC(N(C)C)C(O)C(C)O2)c2c(cc3c(c2O)C(=O)c2c(O)ccc(O)c2C3=O)[C@H]1C(=O)OC (stereo partly specified) | 0.192 | 0.258 | – | 0.672 | 0.218 | 1.35 | 1.23 | 1 | 0.455 | –
8 | Cc1cc2c(c(C(=O)NCC(=O)N[C@@H](C)C(=O)OCc3ccccc3)c1)Oc1c(cc(C)cc1C(=O)NCC(=O)N[C@@H](C)C(=O)OCc1ccccc1)S2 | > 100 | 85.3 | > 100 | > 100 | – | – | > 100 | > 100 | > 100 | > 100
9 | Cc1cc2nc3c(C#N)c4c(c(Nc5ccc(F)cc5)n3c2cc1C)CCC4 | > 100 | > 100 | > 100 | > 100 | > 100 | – | > 100 | – | > 100 | > 100
10 | CN1CCN(C(=O)CCC(=O)Nc2cc3c(c4ccccc24)-c2ccc4ccccc4c2C3)CC1 | – | 3.45 | 3.02 | 3.15 | – | 3.36 | 4.11 | 3.28 | 3.93 | 2.84
11 | COC1OCC(O)C(NC(=O)N(C)N=O)C1O (stereo unspecified) | > 100 | > 100 | – | > 100 | – | > 100 | > 100 | > 100 | > 100 | –
12 | Nn1c(Nc2ccc(S(N)(=O)=O)cc2)nnc(/C=C/c2c(O)ccc3ccccc23)c1=O | 0.805 | – | 50.1 | 56.7 | 28.6 | – | > 100 | 57.3 | – | 40.4
13 | CCCCCCSc1nc(N)nc2nc[nH]c12 | > 100 | > 93 | – | > 100 | 60.4 | 72.1 | > 100 | 68.6 | > 85.4 | –
